Assay results: patent publication US8067468B2, “L-carnitine and alkanoyl L-carnitine phytates and process for preparing the same” (priority 2009, dated 2011)
Counter-ions that a name gives are not always drawn.

Experiments:
[1] = Odor of the dried product (sign of decomposition / acid smell); format: physicochemical; settings: dried solid product
Procedure: According to one embodiment, 96.7 grams (0.6 mole) of L-carnitine inner salt (C7H15NO3, molecular weight 161.20) was added to a 50% aqueous solution (having a pH value <1) of 66.0 grams (0.1 mole) phytic acid and stirred at room temperature resulting in an exothermic reaction. […] According to one embodiment, the solution (having a pH value of about 4) was further stirred 20 minutes. […] According to one embodiment, the residue is further dried in a vacuum oven at 50° C. to obtain 166.2 grams of white solid powder with an almost quantitative yield (i.e., the white solid powder contains 2% H2O).
According to one embodiment, 122.09 grams (0.6 mole) of acetyl L-carnitine inner salt (C9H17NO4, molecular weight 203.24) was added to a 50% aqueous solution (having a pH value <1) of 66.0 grams (0.1 mole) phytic acid and stirred at room temperature resulting in an exothermic reaction. […] According to one embodiment, the residue is further dried in a vacuum oven at 50° C. to obtain 192.7 grams of white solid powder with an almost quantitative yield (i.e., the white solid powder contains 2% H2O). […]

[2] = pH value of the product (c=1% H2O); format: physicochemical
Procedure: According to one embodiment, the solution (having a pH value of about 4) was further stirred 20 minutes. According to one embodiment, the solution was concentrated on an evaporator under a vacuum at 50° C. According to one embodiment, the residue was repeatedly (3 times) taken up using anhydrous ethanol under a vacuum to dry the solution as much as possible.

mice = assay: Single dose oral acute toxicity study (LD50); format: in vivo
Procedure: The single dose oral acute toxicity of L-carnitine phytate (in a 6:1 mole ratio) was evaluated in mice. Five dosages (25, 20, 15, 10, and 5 g/Kg) were orally administrated to five groups of mice in which each group had five male and five female mice. After dosing, the five groups of mice were observed and daily records (for 14 days) were made of their general conditions, toxic response, and deaths. All of the dead mice were necropsied, in which each of the body's thorace and abdomen were opened, and each heart, liver, spleen, lung, kidney, and intestine were examined and recorded.

[3] = tested on: human mammary cancer cell line; settings: incubated with a human mammary cancer cell line; cited from earlier work
[4] = cited from earlier work
[5] = post-administration, independent of route; cited from earlier work

For CC(=O)O[C@H](CC(=O)O)C[N+](C)(C)C [Example Embodiment 3, Acetyl L-Carnitine Phytate (in a 6:1 mole ratio)], the odor [1] was “odorless” and the pH value [2] was 4.

In the case of “L-Carnitine Phytate (in a 6:1 mole ratio) [Example Embodiment 2]”, the “necropsy findings in hearts, livers, spleens, lungs, kidneys and intestines” value (mice; single oral dose 5-25 g/Kg, dead mice necropsied) is reported as “not any obvious abnormalities observed” and the “acute oral LD50” value (mice; single oral dose, observed for 14 days) is reported as 14860 mg/kg.

With CC(C)C(=O)O[C@H](CC(=O)O)C[N+](C)(C)C [Example Embodiment 6, Isobutyryl L-Carnitine Phytate (in a 6:1 mole ratio)] the pH value [2] was 4.

With “Butyryl L-Carnitine Phytate (in a 6:1 mole ratio) [Example Embodiment 5]” the pH value [2] was 4.

For O=P(O)(O)O[C@H]1[C@H](OP(=O)(O)O)[C@@H](OP(=O)(O)O)[C@H](OP(=O)(O)O)[C@@H](OP(=O)(O)O)[C@H]1OP(=O)(O)O [phytic acid, Phytic acid], the “time of first detection of IP6 in cells” value [3] is given as “as early as one minute post-incubation”, the “pKa of the remaining three very weakly acidic sites” value [4] is given as “greater than 10” and the “pKa of the six strongly acidic proton dissociation sites” value ([4]; first dissociation proton of each phosphate group) is given as about 1.5. The “time to reach targeted tumor tissue” value [5] was “as early as one hour post-administration”.

With “Propinoyl L-Carnitine Phytate (in a 6:1 mole ratio) [Example Embodiment 4]” the odor [1] was “odorless” and the pH value [2] was 4.

For C[N+](C)(C)C[C@H](O)CC(=O)[O-] [L-carnitine's inner salt, L-carnitine inner salt], the pKa value [4] is listed as 3.8.
